In the supplement of paper PMC10307832:

Legend:
Test in all cases: relative viability (nuclei count vs DMSO), 5 days (fraction); higher = more cells survive
[1] = compound: CC1=C(C(=NN1)C)CC2=C(C3=C(S2)N(C(=O)N(C3=O)C)CC(C)C)C(=O)N4C[C@@H](CO4)O + Cc1nc(Nc2ncc(C(=O)Nc3c(C)cccc3Cl)s2)cc(N2CCN(CCO)CC2)n1 [Dasatinib] (partner 0.075 µM)
In short: (§1)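 Relative viability divides the nuclei count in treated wells by that in vehicle wells. Lung cancer cell lines were seeded in 1536-well plates, dosed by pin tool the next day, and fixed and stained after 5 days in one step with final 0.05% Triton X-100, 1% formaldehyde and 1 ug/ml Hoechst. Dosing was a single drug or a fixed anchor-drug dose plus five library-drug doses (not always all listed) in √10 steps, and values are medians of duplicate plates imaged at 4×.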

IDH-C35 + Trametinib = compound: Cc1ccccc1C(C(=O)NC1CCCCC1)N(C(=O)Cn1ccnc1C)c1cccc(F)c1 [IDH-C35] + CC(=O)Nc1cccc(-n2c(=O)n(C3CC3)c(=O)c3c(Nc4ccc(I)cc4F)n(C)c(=O)c(C)c32)c1 [Trametinib] (partner 0.02 µM)
In short: as §1

IDH-C35 + Foretinib = compound: Cc1ccccc1C(C(=O)NC1CCCCC1)N(C(=O)Cn1ccnc1C)c1cccc(F)c1 [IDH-C35] + COc1cc2c(Oc3ccc(NC(=O)C4(C(=O)Nc5ccc(F)cc5)CC4)cc3F)ccnc2cc1OCCCN1CCOCC1 [Foretinib] (partner 0.25 µM)
In short: as §1

IDH-C35 + Pictilisib = compound: Cc1ccccc1C(C(=O)NC1CCCCC1)N(C(=O)Cn1ccnc1C)c1cccc(F)c1 [IDH-C35] + CS(=O)(=O)N1CCN(Cc2cc3nc(-c4cccc5[nH]ncc45)nc(N4CCOCC4)c3s2)CC1 [Pictilisib] (partner 1 µM)
In short: as §1

Cell Line | relative viability ([1]; first compound 0.0025 µM) | relative viability ([1]; first compound 0.007906 µM) | relative viability ([1]; first compound 0.025 µM) | relative viability ([1]; first compound 0.07906 µM) | relative viability ([1]; first compound 0.25 µM) | relative viability (IDH-C35 + Trametinib; first compound 0.08 µM) | relative viability (IDH-C35 + Trametinib; first compound 0.253 µM) | relative viability (IDH-C35 + Trametinib; first compound 0.8 µM) | relative viability (IDH-C35 + Trametinib; first compound 2.53 µM) | relative viability (IDH-C35 + Trametinib; first compound 8 µM) | relative viability (IDH-C35 + Foretinib; first compound 0.08 µM) | relative viability (IDH-C35 + Foretinib; first compound 0.253 µM) | relative viability (IDH-C35 + Foretinib; first compound 0.8 µM) | relative viability (IDH-C35 + Foretinib; first compound 2.53 µM) | relative viability (IDH-C35 + Foretinib; first compound 8 µM) | relative viability (IDH-C35 + Pictilisib; first compound 0.08 µM) | relative viability (IDH-C35 + Pictilisib; first compound 0.253 µM) | relative viability (IDH-C35 + Pictilisib; first compound 0.8 µM) | relative viability (IDH-C35 + Pictilisib; first compound 2.53 µM) | relative viability (IDH-C35 + Pictilisib; first compound 8 µM)
NCI-H1437 | 0.393 | 0.409 | 0.314 | 0.488 | 0.434 | 0.514 | 0.522 | 0.534 | 0.51 | 0.489 | 1.29 | 1.28 | 1.25 | 1.29 | 1.23 | 0.416 | 0.494 | 0.476 | 0.439 | 0.368
COR-L23 | 0.561 | 0.533 | 0.427 | 0.375 | 0.449 | 0.599 | 0.639 | 0.591 | 0.565 | 0.54 | 0.969 | 0.95 | 0.891 | 1.01 | 1.03 | 0.85 | 0.769 | 0.833 | 0.79 | 0.833
ABC-1 |  | 0.346 |  | 0.453 | 0.517 |  |  |  |  |  | 1.16 | 0.967 | 0.918 | 1.08 | 1.21 | 0.675 | 0.667 | 0.617 | 0.984 | 0.908
SW 900 | 0.768 | 0.696 | 0.614 | 0.476 | 0.559 | 0.855 | 0.773 |  | 0.91 | 0.767 | 0.729 | 0.909 | 0.877 | 0.6 | 0.926 |  |  |  |  | 
NCI-H838 | 0.347 | 0.322 | 0.276 | 0.197 | 0.304 | 0.579 | 0.505 | 0.508 | 0.507 | 0.503 | 1.07 | 0.991 | 0.95 | 0.998 | 1.03 | 0.414 | 0.506 | 0.453 | 0.508 | 0.423
NCI-H1648 |  |  |  |  |  |  | 0.566 | 0.465 | 0.479 | 0.584 |  |  |  |  |  |  |  |  |  | 
A549 |  |  |  |  |  |  |  |  |  |  | 0.881 | 0.863 | 0.968 | 1.05 | 0.835 | 0.532 | 0.504 | 0.595 | 0.472 | 0.401
A-427 | 0.746 | 0.84 | 0.727 | 0.733 | 0.764 | 0.791 | 0.784 | 0.77 | 0.722 | 0.705 | 1.01 | 1 | 0.967 | 0.903 | 0.944 | 0.621 | 0.801 | 0.615 | 0.466 | 0.791
NCI-H1792 | 0.836 | 0.947 | 0.813 | 0.569 | 0.687 | 0.393 | 0.338 | 0.485 | 0.405 | 0.544 |  |  |  |  |  | 0.231 | 0.3 | 0.251 | 0.345 | 0.277
LCLC-97TM1 | 0.898 | 0.897 | 0.735 | 0.852 | 0.878 | 0.183 | 0.2 | 0.21 |  | 0.243 | 0.921 | 0.865 | 0.947 | 1.02 | 0.954 | 0.17 | 0.168 | 0.192 |  | 0.192
